System: NL5901, CL2006 and CL4176 worms
Test: Motor function (thrashing, paralysis) in worms expressing human α-synuclein or Aβ in muscles
Format: in vivo, C. elegans
Settings: NL5901, human α-synuclein within muscles
Text: FIG. 21, panels A-F: AIC106 prevents neuronal loss and proteotoxicity in strains expressing human neurotoxic proteins. Panel A) Dopaminergic neuronal loss in day-5 UA44 worms was quantified by scoring percentage of worms with intact 4-CEP neurons in AIC106 and DMSO-control treatment. [N=3 independent experiments (mean±SD). ***p<0.001, by one-way ANOVA with Tukey's multiple comparisons test]. Motor function in (panel B) day-7 NL5901 and (panel C) day-5 CL2006 worms were quantified by scoring number of thrashes for an individual worm over the period of 30 seconds (dots) in AIC106 and DMSO-control treatment. […] Panel D) Motor function in temperature sensitive (enhanced paralysis at 25° C.) CL4176 worms was determined by scoring percent of worms paralyzed in AIC106 and DMSO-control treatment. […] P-value calculated by Logrank test]. Panel F) Effect of AIC106 on polyQ40 aggregation was determined by scoring number of polyQ40-YFP fluorescent puncta in an individual AM141 worm treated with AIC106 and DMSO-control. […]
FIG. 22, panels A-H: AIC106-induced HLH-30 expression is mediated by the nuclear hormone receptor DAF-12. […] Panel B) Relative fold change in mRNA of hlh-30 compared to DMSO-control was quantified using qRT-PCR in young adult wild-type N2 and daf-12(rh61rh411) worms post-24 hours treatment with AIC106. […]

| Structure (SMILES) | motor function (thrashing rate) |
| --- | --- |
| Cc1cccc(C)c1OCc1cc(C(=O)N2CCC(c3ccncc3)CC2)no1 [DFA, dafadine-A, reference compound] | improved motor function |
| O=c1oc2c3c4c(cc2c2c1CCC2)CCCN4CCC3 [C1, 2,3,6,7,10,11-Hexahydro-1H,5H-cyclopenta(3,4)(1)benzopyrano(6,7,8-ij)quinolizin-12(9H)-one] | improved motor function |

Reference: patent US12673039B2, “Methods of inducing autophagy using coumarin derivatives and related compounds” (Buck Institute for Research on Aging, priority 2019, dated 2026)
